Measured values as given in US20110160196A1, “FACTOR XA INHIBITORS” (Millennium Pharmaceuticals, Inc., priority 2007, published 2011).

Each compound was assayed against T1, human plasma protein factor Xa (Homo sapiens, UniProt P00742) (assay: Factor Xa IC50 determination (cleavage of paranitroanilide substrate S-2765)). Settings: factor Xa 1 nM, S-2765 100 μM, Tris buffered saline pH 7.4, read at 405 nm.
T1 construct: The human plasma protein factor Xa was purchased; purchased Haematologic Technologies (Essex Junction, Vt.); host or cells: human plasma
Format: biochemical
From the text: This example illustrates methods for evaluating the compounds of the invention, along with results obtained for such assays. The in vitro and in vivo human Factor Xa activities of the inventive compounds can be determined by various procedures known in the art, such as a test for their ability to inhibit the activity of human plasma Factor Xa. […] The IC50 value is the concentration (in nM) of the compound required to provide 50% inhibition of human Factor Xa proteolytic activity.
An in vitro assay for detecting and measuring inhibition activity against Factor Xa is as follows:
The substrate S-2765 (Z-D-Arg-Gly-Arg-pNA.HCl) was obtained from Diapharma (West Chester, Ohio).
The human plasma protein factor Xa was purchased from Haematologic Technologies (Essex Junction, Vt.).
All assays, which are performed in 96-well microtiter plates, measure proteolytic activity of the enzyme (factor Xa) by following cleavage of a paranitroanilide peptide substrate. The assay buffer used for proteolytic assays was Tris buffered saline (20 mM Tris, 150 mM NaCl, 5 mM CaCl2, 0.1% Bovine serum albumin (BSA), 5% Dimethly Sulfoxide (DMSO) pH 7.4). In a 96-well microtiter plate, inhibitor was serially diluted to give a range of final concentrations from 0.01 nM to 10 μM. Duplicate sets of wells were assayed and control wells without inhibitor were included. Enzyme was added to each well, (factor Xa concentration=1 nM), the plate was shaken for 5 seconds and then incubated for 5 minutes at room temperature. S-2765 was added (100 μM final) and the plate was shaken for 5 seconds (final volume in each well was 200 μl). The degree of substrate hydrolysis was measured at 405 nm on a Thermomax plate reader (Molecular Devices, Sunnyvale, Calif.) for 2 minutes. The initial velocities of substrate cleavage (mOD/min), for each range of inhibitor concentrations, were fitted to a four parameter equation using Softmax data analysis software. The parameter C, derived from the resulting curve-fit, corresponded to the concentration for half maximal inhibition (IC50).

T1 sequence (P00742 235-488 limits assumed): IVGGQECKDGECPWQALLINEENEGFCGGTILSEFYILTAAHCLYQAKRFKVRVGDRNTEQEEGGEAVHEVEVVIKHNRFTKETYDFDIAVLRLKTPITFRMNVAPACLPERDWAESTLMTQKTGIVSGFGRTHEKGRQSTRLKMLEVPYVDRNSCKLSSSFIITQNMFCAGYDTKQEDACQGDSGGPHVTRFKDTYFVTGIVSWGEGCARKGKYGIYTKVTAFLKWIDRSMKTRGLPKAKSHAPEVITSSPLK
T1 sequence (P00742 41-179 partner limits assumed): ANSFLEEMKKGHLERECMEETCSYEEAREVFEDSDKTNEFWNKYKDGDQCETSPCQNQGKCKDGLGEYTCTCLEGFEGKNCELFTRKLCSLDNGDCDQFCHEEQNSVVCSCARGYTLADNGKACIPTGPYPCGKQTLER

Structure (SMILES) | IC50 [nM]
NCCCOc1cc(-n2ccccc2=O)ccc1-n1cc(CNC(=O)c2ccc(Cl)s2)nn1 [Compound 68, N-((1-(2-(3-Aminopropoxy)-4-(2-oxopyridin-1(2H)-yl)phenyl)-1H-1,2,3-triazol-4-yl)methyl)-5-chlorothiophene-2-carboxamide] | ≤ 100
O=C(NCc1cn(-c2ccc(-n3ccccc3=O)cc2OCCCO)nn1)c1ccc(Cl)s1 [Compound 74, 5-Chloro-N-((1-(2-(3-hydroxypropoxy)-4-(2-oxopyridin-1(2H)-yl)phenyl)-1H-1,2,3-triazol-4-yl)methyl)thiophene-2-carboxamide] | ≤ 100
O=C(NCc1cn(-c2ccc(-n3ccccc3=O)cc2OCCO)nn1)c1ccc(Cl)s1 [Compound 75, 5-Chloro-N-((1-(2-(2-hydroxyethoxy)-4-(2-oxopyridin-1(2H)-yl)phenyl)-1H-1,2,3-triazol-4-yl)methyl)thiophene-2-carboxamide] | ≤ 100
COCCOc1cc(-n2ccccc2=O)ccc1-n1cc(CNC(=O)c2ccc(Cl)s2)nn1 [Compound 76, 5-Chloro-N-((1-(2-(2-methoxyethoxy)-4-(2-oxopyridin-1(2H)-yl)phenyl)-1H-1,2,3-triazol-4-yl)methyl)thiophene-2-carboxamide] | ≤ 100
O=C(NCc1cn(-c2ccc(-n3ccccc3=O)cc2OC[C@H](O)CO)nn1)c1ccc(Cl)s1 [Compound 78, 5-Chloro-N-((1-(2-((R)-2,3-dihydroxypropoxy)-4-(2-oxopyridin-1(2H)-yl)phenyl)-1H-1,2,3-triazol-4-yl)methyl)thiophene-2-carboxamide] | ≤ 100
O=C(NCc1cn(-c2ccc(-n3ccccc3=O)cc2OC[C@@H](O)CO)nn1)c1ccc(Cl)s1 [Compound 79, 5-Chloro-N-((1-(2-((S)-2,3-dihydroxypropoxy)-4-(2-oxopyridin-1(2H)-yl)phenyl)-1H-1,2,3-triazol-4-yl)methyl)thiophene-2-carboxamide] | ≤ 100
CS(=O)(=O)CCOc1cc(-n2ccccc2=O)ccc1-n1cc(CNC(=O)c2ccc(Cl)s2)nn1 [Compound 80, 5-Chloro-N-((1-(2-(2-(methylsulfonyl)ethoxy)-4-(2-oxopyridin-1(2H)-yl)phenyl)-1H-1,2,3-triazol-4-yl)methyl)thiophene-2-carboxamide] | ≤ 100
CCS(=O)(=O)CCOc1cc(-n2ccccc2=O)ccc1-n1cc(CNC(=O)c2ccc(Cl)s2)nn1 [Compound 82, 5-Chloro-N-((1-(2-(2-(ethylsulfonyl)ethoxy)-4-(2-oxopyridin-1(2H)-yl)phenyl)-1H-1,2,3-triazol-4-yl)methyl)thiophene-2-carboxamide] | ≤ 100
CS(=O)(=O)CCCOc1cc(-n2ccccc2=O)ccc1-n1cc(CNC(=O)c2ccc(Cl)s2)nn1 [Compound 83, 5-Chloro-N-((1-(2-(3-(methylsulfonyl)propoxy)-4-(2-oxopyridin-1(2H)-yl)phenyl)-1H-1,2,3-triazol-4-yl)methyl)thiophene-2-carboxamide] | ≤ 100
CN(C)CCOc1cc(-n2ccccc2=O)ccc1-n1cc(CNC(=O)c2ccc(Cl)s2)nn1 [Compound 85] | ≤ 100
CN(C)CC[N+](C)(C)CCOc1cc(-n2ccccc2=O)ccc1-n1cc(CNC(=O)c2ccc(Cl)s2)nn1 [Compound 86] | ≤ 100
O=C(NCc1cn(-c2ccc(-n3ccccc3=O)cc2OCCN2CCCC2)nn1)c1ccc(Cl)s1 [Compound 88, 5-Chloro-N-((1-(4-(2-oxopyridin-1(2H)-yl)-2-(2-(pyrrolidin-1-yl)ethoxy)phenyl)-1H-1,2,3-triazol-4-yl)methyl)thiophene-2-carboxamide] | ≤ 100
O=C(NCc1cn(-c2ccc(-n3ccccc3=O)cc2OCCN2CCCCC2)nn1)c1ccc(Cl)s1 [Compound 89, 5-Chloro-N-((1-(4-(2-oxopyridin-1(2H)-yl)-2-(2-(piperidin-1-yl)ethoxy)phenyl)-1H-1,2,3-triazol-4-yl)methyl)thiophene-2-carboxamide] | ≤ 100
O=C(NCc1cn(-c2ccc(-n3ccccc3=O)cc2OCCN2CCOCC2)nn1)c1ccc(Cl)s1 [Compound 90, 5-Chloro-N-((1-(2-(2-morpholinoethoxy)-4-(2-oxopyridin-1(2H)-yl)phenyl)-1H-1,2,3-triazol-4-yl)methyl)thiophene-2-carboxamide] | ≤ 100
O=C(NCc1cn(-c2ccc(-n3ccccc3=O)cc2OCCc2ccncc2)nn1)c1ccc(Cl)s1 [Compound 91, 5-Chloro-N-((1-(4-(2-oxopyridin-1(2H)-yl)-2-(2-(pyridin-4-yl)ethoxy)phenyl)-1H-1,2,3-triazol-4-yl)methyl)thiophene-2-carboxamide] | ≤ 100
CN(C)CCCOc1cc(-n2ccccc2=O)ccc1-n1cc(CNC(=O)c2ccc(Cl)s2)nn1 [Compound 92, 5-Chloro-N-((1-(2-(3-(dimethylamino)propoxy)-4-(2-oxopyridin-1(2H)-yl)phenyl)-1H-1,2,3-triazol-4-yl)methyl)thiophene-2-carboxamide] | ≤ 100
O=C(NCc1cn(-c2ccc(-n3ccccc3=O)cc2OCCCN2CCCC2)nn1)c1ccc(Cl)s1 [Compound 93, 5-Chloro-N-((1-(4-(2-oxopyridin-1(2H)-yl)-2-(3-(pyrrolidin-1-yl)propoxy)phenyl)-1H-1,2,3-triazol-4-yl)methyl)thiophene-2-carboxamide] | ≤ 100
O=C(NCc1cn(-c2ccc(-n3ccccc3=O)cc2OCCCN2CCCCC2)nn1)c1ccc(Cl)s1 [Compound 94, 5-Chloro-N-((1-(4-(2-oxopyridin-1(2H)-yl)-2-(3-(piperidin-1-yl)propoxy)phenyl)-1H-1,2,3-triazol-4-yl)methyl)thiophene-2-carboxamide] | ≤ 100
O=C(NCc1cn(-c2ccc(-n3ccccc3=O)cc2OCCCN2CCOCC2)nn1)c1ccc(Cl)s1 [Compound 95, 5-Chloro-N-((1-(2-(3-morpholinopropoxy)-4-(2-oxopyridin-1(2H)-yl)phenyl)-1H-1,2,3-triazol-4-yl)methyl)thiophene-2-carboxamide] | ≤ 100
O=C(O)COc1cc(-n2ccccc2=O)ccc1-n1cc(CNC(=O)c2ccc(Cl)s2)nn1 [Compound 96, 2-(2-(4-((2-Chlorothiophene-5-carboxamido)methyl)-1H-1,2,3-triazol-1-yl)-5-(2-oxopyridin-1(2H)-yl)phenoxy)acetic acid] | 100 to 500
O=C(NCc1cn(-c2ccc(-n3ccccc3=O)cc2OCc2nnn[nH]2)nn1)c1ccc(Cl)s1 [Compound 98, N-((1-(2-((1H-Tetrazol-5-yl)methoxy)-4-(2-oxopyridin-1(2H)-yl)phenyl)-1H-1,2,3-triazol-4-yl)methyl)-5-chlorothiophene-2-carboxamide] | ≤ 100
O=C(NCc1cn(-c2ccc(-n3ccccc3=O)cc2OC(F)(F)F)nn1)c1ccc(Cl)s1 [Compound 99, 5-Chloro-N-((1-(4-(2-oxopyridin-1(2H)-yl)-2-(trifluoromethoxy)phenyl)-1H-1,2,3-triazol-4-yl)methyl)thiophene-2-carboxamide] | ≤ 100
O=C(NCc1cn(-c2ccc(-n3ccccc3=O)cc2C(=O)O)nn1)c1ccc(Cl)s1 [Compound 100, 2-(4-((2-Chlorothiophcne-5-carboxamido)methyl)-1H-1,2,3-triazol-1-yl)-5-(2-oxopyridin-1(2H)-yl)benzoic acid] | 100 to 500
NC(=O)c1cc(-n2ccccc2=O)ccc1-n1cc(CNC(=O)c2ccc(Cl)s2)nn1 [Compound 101, N-((1-(2-Carbamoyl-4-(2-oxopyridin-1(2H)-yl)phenyl)-1H-1,2,3-triazol-4-yl)methyl)-5-chlorothiophene-2-carboxamide] | ≤ 100
CNC(=O)c1cc(-n2ccccc2=O)ccc1-n1cc(CNC(=O)c2ccc(Cl)s2)nn1 [Compound 102, 5-Chloro-N-((1-(2-(methylcarbamoyl)-4-(2-oxopyridin-1(2H)-yl)phenyl)-1H-1,2,3-triazol-4-yl)methyl)thiophenc-2-carboxamide] | ≤ 100
CN(C)C(=O)c1cc(-n2ccccc2=O)ccc1-n1cc(CNC(=O)c2ccc(Cl)s2)nn1 [Compound 103, 5-Chloro-N-((1-(2-(dimethylcarbamoyl)-4-(2-oxopyridin-1(2H)-yl)phenyl)-1H-1,2,3-triazol-4-yl)methyl)thiophene-2-carboxamide] | ≤ 100
O=C(NCc1cn(-c2ccc(-n3ccccc3=O)cc2C(=O)NCCO)nn1)c1ccc(Cl)s1 [Compound 104, N-((1-(2-((2-Hydroxyethyl)carbamoyl)-4-(2-oxopyridin-1(2H)-yl)phenyl)-1H-1,2,3-triazol-4-yl)methyl)-5-chlorothiophene-2-carboxamide] | 100 to 500
O=C(NCc1cn(-c2ccc(-n3ccccc3=O)cc2C(=O)NCCCO)nn1)c1ccc(Cl)s1 [Compound 105, N-((1-(2-((3-Hydroxypropyl)carbamoyl)-4-(2-oxopyridin-1(2H)-yl)phenyl)-1H-1,2,3-triazol-4-yl)methyl)-5-chlorothiophene-2-carboxamide] | 100 to 500
